Reference: ChEMBL document CHEMBL3813605, “Jatrophane and ingenane-type diterpenoids from Euphorbia kansui inhibit the LPS-induced NO production in RAW 264.7 cells” (Bioorg Med Chem Lett, 2016)

How the values were obtained:
RAW264.7 [1] = assay: Cytotoxicity against mouse RAW264.7 cells assessed as reduction in cell viability by MTT assay; type: cell-based
RAW264.7 [2] = assay: Antiinflammatory activity in mouse RAW264.7 cells assessed as inhibition of LPS-induced NO production incubated for 24 hrs by Griess method; type: functional, cell-based; conditions: RAW264.7, 24 h

SMILES | Activity (RAW264.7 [1]) | IC50 (RAW264.7 [2]) [µM]
CCCCC/C=C\C=C\C(=O)O[C@H]1C(C)=C[C@]23C(=O)[C@@H](C=C(C)[C@@H](O)[C@]12O)[C@H]1[C@@H](C[C@H]3C)C1(C)C | Non-toxic | 14.1
CC(=O)O[C@H]1C(C)=C[C@]23C(=O)[C@@H](C=C(CO)[C@@H](OC(=O)c4ccccc4)[C@]12O)[C@H]1[C@@H](C[C@H]3C)C1(C)C | Non-toxic | 29.5
CC1=C[C@]23C(=O)[C@@H](C=C(CO)[C@@H](O)[C@]2(O)[C@H]1O)[C@H]1[C@@H](C[C@H]3C)C1(C)C [INGENOL] | Non-toxic | > 100
C=C1[C@@H](OC(C)=O)[C@@H](OC(=O)c2ccccc2)[C@@H](OC(C)=O)C(C)(C)[C@H]2O[C@](O)([C@H](C)C2=O)[C@@]2(OC(C)=O)C[C@H](C)[C@H](OC(C)=O)[C@@H]2[C@H]1OC(C)=O | Non-toxic | 2.9
C=C1[C@H](OC(=O)c2ccccc2)[C@H]2[C@@H](OC(C)=O)[C@](C)(O)[C@@H](O)[C@]2(OC(C)=O)C(=O)[C@@H](C)/C=C/C(C)(C)C(=O)[C@H](O)[C@H]1OC(=O)c1ccccc1 | Non-toxic | 46.5
CC1=C[C@@H]2C(=O)[C@]3(C=C(C)[C@H](OC(=O)c4ccccc4)[C@@]3(O)[C@@H]1O)[C@H](C)C[C@@H]1[C@H]2C1(C)C | Non-toxic | 16
CCCCC/C=C\C=C\C(=O)O[C@H]1C(C)=C[C@]23C(=O)[C@@H](C=C(COC(C)=O)[C@@H](O)[C@]12O)[C@H]1[C@@H](C[C@H]3C)C1(C)C | Non-toxic | 5.1
CC(=O)OCC1=C[C@@H]2C(=O)[C@]3(C=C(C)[C@H](O)[C@@]3(O)[C@@H]1O)[C@H](C)C[C@@H]1[C@H]2C1(C)C | Non-toxic | > 100
C=C1[C@@H](OC(C)=O)[C@@H](OC(=O)c2ccccc2)[C@@H](OC(C)=O)C(C)(C)[C@H]2O[C@](O)([C@H](C)C2=O)[C@@]2(OC(C)=O)C[C@@](C)(O)[C@H](OC(C)=O)[C@@H]2[C@H]1OC(C)=O | Non-toxic | 50.2
C=C1[C@H](OC(C)=O)[C@@H](OC(=O)c2ccccc2)[C@H](OC(=O)c2cccnc2)C(C)(C)[C@H]2O[C@@H]2[C@@H](C)C(=O)[C@@]2(OC(C)=O)C[C@H](C)[C@H](OC(C)=O)[C@@H]2[C@H]1OC(C)=O | Non-toxic | 6.3
CCCCC/C=C\C=C\C(=O)O[C@@H]1C(COC(C)=O)=C[C@@H]2C(=O)[C@]3(C=C(C)[C@H](O)[C@@]13O)[C@H](C)C[C@@H]1[C@H]2C1(C)C | Non-toxic | 10.1
CC1=C[C@@H]2C(=O)[C@]3(C=C(C)[C@H](O)[C@@]3(O)[C@@H]1OC(=O)c1ccccc1)[C@H](C)C[C@@H]1[C@H]2C1(C)C | Non-toxic | 3.1
CCCCC/C=C/C=C/C(=O)O[C@H]1C(C)=C[C@]23C(=O)[C@@H](C=C(COC(C)=O)[C@@H](O)[C@]12O)[C@H]1[C@@H](C[C@H]3C)C1(C)C | Non-toxic | 0.7
C=C1[C@H](OC(=O)c2ccccc2)[C@H]2[C@@H](OC(C)=O)[C@](C)(O)[C@@H](OC(C)=O)[C@]2(O)C(=O)[C@@H](C)/C=C/C(C)(C)C(=O)[C@H](OC(C)=O)[C@H]1OC(=O)c1ccccc1 | Non-toxic | 16.4
N=C(N)NN [PIMAGEDINE] | – | 18.7
CCCCC/C=C/C=C/C(=O)O[C@@H]1C(COC(C)=O)=C[C@@H]2C(=O)[C@]3(C=C(C)[C@H](O)[C@@]13O)[C@H](C)C[C@@H]1[C@H]2C1(C)C | Non-toxic | 7.6
C=C1[C@@H](OC(C)=O)[C@@H](OC(=O)c2ccccc2)[C@@H](OC(=O)c2cccnc2)C(C)(C)[C@H]2O[C@](O)([C@H](C)C2=O)[C@@]2(OC(C)=O)C[C@H](C)[C@H](OC(C)=O)[C@@H]2[C@H]1OC(C)=O | Non-toxic | 22.1
